Molecules are shown by their SMILES. Read-outs that look alike come from different tables or passages of the source.

A word on the IC50: it is the concentration that gives 50% inhibition. Read a low IC50 as greater potency.

The target in assay [1] is T1, SaSerRS (Staphylococcus aureus, UniProt P95689). The experiment in a line: continuous coupled spectrophotometric assay of adenylate formation. Format: biochemical.
Assay [2] addresses T2, HsSerRS (Homo sapiens, UniProt P49591). The assay is classed as biochemical.
Assay [3] addresses T3, EcSerRS (Escherichia coli, UniProt P0A8L1). Description: continuous coupled spectrophotometric assay of adenylate formation. Format: biochemical.
Assay [4] deals with T1, SaSerRS. Description: biochemical.
Assay [5] addresses T2, HsSerRS. The experiment in a line: biochemical.
In assay [6] the target is T3, EcSerRS. Description: biochemical.
[7] abbreviates: pH 7.6, 37 °C, 10 mM MgCl2, 10% DMSO.

T3 sequence (P0A8L1 whole entry): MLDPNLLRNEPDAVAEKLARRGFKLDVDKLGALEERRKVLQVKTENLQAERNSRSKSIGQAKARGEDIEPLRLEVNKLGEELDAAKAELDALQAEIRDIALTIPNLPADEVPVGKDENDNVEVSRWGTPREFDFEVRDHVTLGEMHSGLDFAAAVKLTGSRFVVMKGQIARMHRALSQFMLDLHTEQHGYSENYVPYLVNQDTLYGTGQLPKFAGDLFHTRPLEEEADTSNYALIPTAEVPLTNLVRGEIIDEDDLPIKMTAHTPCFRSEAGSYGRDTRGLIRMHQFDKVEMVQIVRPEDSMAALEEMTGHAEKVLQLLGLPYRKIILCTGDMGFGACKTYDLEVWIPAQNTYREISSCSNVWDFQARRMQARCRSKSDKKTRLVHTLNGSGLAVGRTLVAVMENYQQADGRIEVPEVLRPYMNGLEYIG
T1 sequence (P95689 whole entry): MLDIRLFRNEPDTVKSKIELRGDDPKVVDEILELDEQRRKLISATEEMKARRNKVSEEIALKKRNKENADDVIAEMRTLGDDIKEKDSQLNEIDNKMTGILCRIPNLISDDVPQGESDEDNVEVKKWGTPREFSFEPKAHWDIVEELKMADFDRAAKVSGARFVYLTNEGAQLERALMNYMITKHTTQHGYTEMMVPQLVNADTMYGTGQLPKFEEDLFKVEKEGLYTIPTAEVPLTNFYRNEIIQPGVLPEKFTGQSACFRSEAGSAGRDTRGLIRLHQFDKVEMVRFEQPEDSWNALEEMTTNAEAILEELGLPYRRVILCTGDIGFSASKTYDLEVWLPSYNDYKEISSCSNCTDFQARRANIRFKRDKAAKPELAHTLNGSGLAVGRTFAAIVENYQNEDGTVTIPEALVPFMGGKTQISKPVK
T2 sequence (P49591 whole entry, looked up): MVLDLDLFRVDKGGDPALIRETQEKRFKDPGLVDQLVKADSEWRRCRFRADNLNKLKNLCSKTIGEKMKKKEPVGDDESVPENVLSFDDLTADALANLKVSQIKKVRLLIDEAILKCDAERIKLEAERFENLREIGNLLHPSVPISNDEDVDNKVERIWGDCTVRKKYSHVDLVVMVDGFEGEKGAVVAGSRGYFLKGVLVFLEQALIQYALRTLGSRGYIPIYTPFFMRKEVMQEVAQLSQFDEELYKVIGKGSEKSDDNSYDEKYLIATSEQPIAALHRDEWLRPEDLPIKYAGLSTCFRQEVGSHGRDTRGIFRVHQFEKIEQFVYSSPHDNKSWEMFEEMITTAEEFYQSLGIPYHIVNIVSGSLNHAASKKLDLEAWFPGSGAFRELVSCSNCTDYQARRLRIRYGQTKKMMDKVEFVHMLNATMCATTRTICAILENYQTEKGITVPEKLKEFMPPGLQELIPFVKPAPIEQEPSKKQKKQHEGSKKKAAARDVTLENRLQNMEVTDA

`Nc1ncnc2c1ncn2[C@@H]1O[C@H](COS(=O)(=O)NC(=O)[C@@H](N)CO)[C@@H](O)[C@H]1O` [compound 1, SerSA]: the IC50 was determined as 0.23 ± 0.49 µM at SaSerRS [1] (pH 7.6, 37 °C, 10 mM MgCl2, 10% DMSO, error as printed is larger than the value); 2.17 ± 0.21 µM against HsSerRS [2]; 0.21 ± 0.03 µM against EcSerRS [3] (setting [7]).

Consider `Nc1nc(Cl)nc2c1ncn2[C@@H]1O[C@H](COS(=O)(=O)NC(=O)[C@@H](N)CO)[C@@H](O)[C@H]1O` [compound 2], for which the IC50 amounted to 0.26 ± 0.03 µM against SaSerRS [1] (setting [7]) and 0.45 ± 0.05 µM on EcSerRS [3] (setting [7]).

Take `Nc1nc(I)nc2c1ncn2[C@@H]1O[C@H](COS(=O)(=O)NC(=O)[C@@H](N)CO)[C@@H](O)[C@H]1O` [compound 3]: the results for the IC50 on SaSerRS [1] (setting [7]) and against EcSerRS [3] (setting [7]) were 0.38 ± 0.04 µM and 1.36 ± 0.12 µM, respectively.

With `Nc1nc(-c2ccccc2)nc2c1ncn2[C@@H]1O[C@H](COS(=O)(=O)NC(=O)[C@@H](N)CO)[C@@H](O)[C@H]1O` [compound 4], the figures for the IC50 against SaSerRS [1] (setting [7]) and against EcSerRS [3] (setting [7]) were 52.7 ± 4.81 µM and 17.7 ± 1.42 µM, respectively.

With `C/C=C/c1nc(N)c2ncn([C@@H]3O[C@H](COS(=O)(=O)NC(=O)[C@@H](N)CO)[C@@H](O)[C@H]3O)c2n1` [compound 5], the IC50 is 3.46 ± 0.47 µM against SaSerRS [1] (setting [7]) and 9.38 ± 0.7 µM at EcSerRS [3] (setting [7]).

With `Nc1nc(-c2ccco2)nc2c1ncn2[C@@H]1O[C@H](COS(=O)(=O)NC(=O)[C@@H](N)CO)[C@@H](O)[C@H]1O` [compound 6], the IC50 stood at 32.4 ± 3.56 µM at SaSerRS [1] (setting [7]) and 36.2 ± 2.41 µM on EcSerRS [3] (setting [7]).

With `Nc1nc(-c2ccsc2)nc2c1ncn2[C@@H]1O[C@H](COS(=O)(=O)NC(=O)[C@@H](N)CO)[C@@H](O)[C@H]1O` [compound 7], the values for the IC50 at SaSerRS [1] (setting [7]) and on EcSerRS [3] (setting [7]) were 1.24 ± 0.12 µM and 1.44 ± 0.09 µM, respectively.

For `Nc1nc(-c2cccnc2)nc2c1ncn2[C@@H]1O[C@H](COS(=O)(=O)NC(=O)[C@@H](N)CO)[C@@H](O)[C@H]1O` [compound 8], the IC50 on SaSerRS [1] (setting [7]) was 6.34 ± 0.71 µM; against EcSerRS [3] (setting [7]) it was 6.65 ± 0.64 µM.

Turning to `C[C@H](N)C(=O)NS(=O)(=O)OC[C@H]1O[C@@H](n2cnc3c(N)ncnc32)[C@H](O)[C@@H]1O` [compound 9, AlaSA], the IC50 against SaSerRS [4], against HsSerRS [5] and against EcSerRS [6] was greater than 1000 µM each time.

Turning to `C[C@@H](O)[C@H](N)C(=O)NS(=O)(=O)OC[C@H]1O[C@@H](n2cnc3c(N)ncnc32)[C@H](O)[C@@H]1O` [compound 10, ThrSA], the IC50 against SaSerRS [1] was 231 µM; on HsSerRS [5], greater than 1000 µM; against EcSerRS [3] it was 285 µM.

The values above are taken from doi:10.1101/586255v1 (biorxiv, 2019).
